Measurements as given in patent US20040023853A1, “Antagonistic peptides of prostaglandin E2 receptor subtype EP4” (priority 2002, published 2004).
Converted amounts (≈) assume the structure as drawn. Non-standard residues stand in square brackets, D forms with d. Residues, ends and D or L forms follow the SMILES beside them. Bip = N[C@@H](Cc1ccc(-c2ccccc2)cc1)C(=O)O; dBip = N[C@H](Cc1ccc(-c2ccccc2)cc1)C(=O)O

system: not listed separately; assay: Solubility of the peptides in water; assay type: physicochemical; conditions: not given
Protocol: Several peptides, based on the structure of 213.15 (SEQ ID NO: 1), were synthesized using F-moc chemistry and the solid phase Merrifield peptide method. The purity of the trifluoroacetate salts of these peptides was assessed by HPLC and mass spectroscopy. The general synthesis methods will be better understood by referring to the following treatises: “Solid phase peptide synthesis”, Stewart & Young, W. H. Freeman Co. San Francisco, 1969; “The proteins”, Erikson and Merrifield, Vol. 2. (ed. Neurath & Hill), Academic Press, New York. 1976.

| Structure (SMILES) | solubility (in words) |
| --- | --- |
| CC(C)C[C@@H](NC(=O)[C@@H](C)NC(=O)[C@@H](CCC(=O)O)NC(=O)[C@@H](Cc1ccc(O)cc1)NC(=O)[C@@H](CCC(=O)O)NC(=O)[C@@H](CO)NC(=O)[C@H](NC(=O)[C@H](N)Cc1ccc(-c2ccccc2)cc1)[C@H](C)O)C(=O)O [Peptide 213.15, (bip)tseyeal] (H-[dBip][dT][dS][dE][dY][dE][dA][dL]-OH; N-terminus and C-terminus assumed) | poor solubility |

same assay, conditions: determined in water

| Structure (SMILES) | solubility |
| --- | --- |
| CC(C)C[C@@H](NC(=O)[C@@H](C)NC(=O)[C@@H](CCC(=O)O)NC(=O)[C@@H](Cc1ccc(O)cc1)NC(=O)[C@@H](CCC(=O)O)NC(=O)[C@@H](CO)NC(=O)[C@H](NC(=O)[C@H](N)Cc1ccc(-c2ccccc2)cc1)[C@H](C)O)C(=O)O [Peptide 213.15, (bip)tseyeal] (H-[dBip][dT][dS][dE][dY][dE][dA][dL]-OH; N-terminus and C-terminus assumed) | 0.2 mg/mL (≈ 0.193 mM) |
| CC(C)C[C@@H](NC(=O)[C@@H](C)NC(=O)[C@@H](CCC(=O)O)NC(=O)[C@@H](Cc1ccc(O)cc1)NC(=O)[C@@H](CCC(=O)O)NC(=O)[C@@H](CO)NC(=O)[C@H](NC(=O)[C@H](N)Cc1ccc(-c2ccccc2)cc1)[C@H](C)O)C(=O)N[C@@H](CCCCN)C(=O)O [Peptide 213.19, (bip)tseyealK] (H-[dBip][dT][dS][dE][dY][dE][dA][dL]K-OH; N-terminus and C-terminus assumed) | 2.8 mg/mL (≈ 2.41 mM) |
| CC(C)C[C@@H](NC(=O)CNC(=O)[C@@H](CCC(=O)O)NC(=O)[C@@H](Cc1ccc(O)cc1)NC(=O)[C@@H](CCC(=O)O)NC(=O)[C@@H](CO)NC(=O)[C@H](NC(=O)[C@H](N)Cc1ccc(-c2ccccc2)cc1)[C@H](C)O)C(=O)N[C@@H](CCCCN)C(=O)O [Peptide 213.20, (bip)tseyeglK] (H-[dBip][dT][dS][dE][dY][dE]G[dL]K-OH; N-terminus and C-terminus assumed) | 1.15 mg/mL (≈ 1 mM) |
| CC(C)C[C@@H](NC(=O)[C@@H](C)NC(=O)[C@@H](CCC(=O)O)NC(=O)[C@@H](Cc1ccc(O)cc1)NC(=O)[C@@H](CCC(=O)O)NC(=O)[C@@H](CO)NC(=O)[C@H](NC(=O)[C@H](N)Cc1ccc(-c2ccccc2)cc1)[C@H](C)O)C(=O)N[C@@H](CCCCN)C(=O)N[C@@H](CCCCN)C(=O)O [Peptide 213.21, (bip)tseyealKK] (H-[dBip][dT][dS][dE][dY][dE][dA][dL]KK-OH; N-terminus and C-terminus assumed) | 24.5 mg/mL (≈ 19 mM) |
| CC(C)C[C@@H](NC(=O)CNC(=O)[C@@H](CCC(=O)O)NC(=O)[C@@H](Cc1ccc(O)cc1)NC(=O)[C@@H](CCC(=O)O)NC(=O)[C@@H](CO)NC(=O)[C@H](NC(=O)[C@H](N)Cc1ccc(-c2ccccc2)cc1)[C@H](C)O)C(=O)N[C@@H](CCCCN)C(=O)N[C@@H](CCCCN)C(=O)O [Peptide 213.22, (bip)tseyeglKK] (H-[dBip][dT][dS][dE][dY][dE]G[dL]KK-OH; N-terminus and C-terminus assumed) | 24.5 mg/mL (≈ 19.2 mM) |
| CC(C)C[C@@H](NC(=O)[C@@H](CO)NC(=O)[C@@H](CCC(=O)O)NC(=O)[C@@H](Cc1ccc(O)cc1)NC(=O)[C@@H](CCC(=O)O)NC(=O)[C@@H](CO)NC(=O)[C@H](NC(=O)[C@H](N)Cc1ccc(-c2ccccc2)cc1)[C@H](C)O)C(=O)N[C@@H](CCCCN)C(=O)O [Peptide 213.23, (bip)tseyeslK] (H-[dBip][dT][dS][dE][dY][dE][dS][dL]K-OH; N-terminus and C-terminus assumed) | 13 mg/mL (≈ 11 mM) |
| CC(C)C[C@@H](NC(=O)[C@@H](CO)NC(=O)[C@@H](CCC(=O)O)NC(=O)[C@@H](Cc1ccc(O)cc1)NC(=O)[C@@H](CCC(=O)O)NC(=O)[C@@H](CO)NC(=O)[C@H](NC(=O)[C@H](N)Cc1ccc(-c2ccccc2)cc1)[C@H](C)O)C(=O)N[C@@H](CCCCN)C(=O)N[C@@H](CCCCN)C(=O)O [Peptide 213.24, (bip)tseyeslKK] (H-[dBip][dT][dS][dE][dY][dE][dS][dL]KK-OH; N-terminus and C-terminus assumed) | 23.5 mg/mL (≈ 18 mM) |
| C[C@H](O)[C@@H](NC(=O)[C@H](N)Cc1ccc(-c2ccccc2)cc1)C(=O)N[C@H](CO)C(=O)N[C@H](CCC(=O)O)C(=O)N[C@H](Cc1ccc(O)cc1)C(=O)N[C@H](CCC(=O)O)C(=O)N[C@H](C)C(=O)N[C@@H](CCCCN)C(=O)O [Peptide 213.25, (bip)tseyeaK] (H-[dBip][dT][dS][dE][dY][dE][dA]K-OH; N-terminus and C-terminus assumed) | 6 mg/mL (≈ 5.71 mM) |
| C[C@H](O)[C@@H](NC(=O)[C@H](N)Cc1ccc(-c2ccccc2)cc1)C(=O)N[C@H](CO)C(=O)N[C@H](CCC(=O)O)C(=O)N[C@H](Cc1ccc(O)cc1)C(=O)N[C@H](CCC(=O)O)C(=O)N[C@H](CO)C(=O)N[C@@H](CCCCN)C(=O)O [Peptide 213.26, (bip)tseyesK] (H-[dBip][dT][dS][dE][dY][dE][dS]K-OH; N-terminus and C-terminus assumed) | 8 mg/mL (≈ 7.5 mM) |
| CC(C)C[C@@H](NC(=O)[C@@H](C)NC(=O)[C@@H](CCC(=O)O)NC(=O)[C@@H](Cc1ccc(O)cc1)NC(=O)[C@@H](CCC(=O)O)NC(=O)[C@@H](CO)NC(=O)[C@H](NC(=O)[C@@H](N)Cc1ccc(-c2ccccc2)cc1)[C@H](C)O)C(=O)N[C@@H](CCCCN)C(=O)N[C@@H](CCCCN)C(=O)O [Peptide 213.27, (Bip)tseyealKK] (H-[Bip][dT][dS][dE][dY][dE][dA][dL]KK-OH; N-terminus and C-terminus assumed) | 23 mg/mL (≈ 17.8 mM) |
| CC(C)C[C@H](NC(=O)[C@@H](C)NC(=O)[C@@H](CCC(=O)O)NC(=O)[C@@H](Cc1ccc(O)cc1)NC(=O)[C@@H](CCC(=O)O)NC(=O)[C@@H](CO)NC(=O)[C@H](NC(=O)[C@H](N)Cc1ccc(-c2ccccc2)cc1)[C@H](C)O)C(=O)N[C@@H](CCCCN)C(=O)N[C@@H](CCCCN)C(=O)O [Peptide 213.28, (bip)tseyeaLKK] (H-[dBip][dT][dS][dE][dY][dE][dA]LKK-OH; N-terminus and C-terminus assumed) | 20 mg/mL (≈ 15.5 mM) |
| CC(C)C[C@H](NC(=O)[C@@H](C)NC(=O)[C@@H](CCC(=O)O)NC(=O)[C@@H](Cc1ccc(O)cc1)NC(=O)[C@@H](CCC(=O)O)NC(=O)[C@@H](CO)NC(=O)[C@H](NC(=O)[C@@H](N)Cc1ccc(-c2ccccc2)cc1)[C@H](C)O)C(=O)N[C@@H](CCCCN)C(=O)N[C@@H](CCCCN)C(=O)O [Peptide 213.29, (Bip)tseyeaLKK] (H-[Bip][dT][dS][dE][dY][dE][dA]LKK-OH; N-terminus and C-terminus assumed) | 15.6 mg/mL (≈ 12.1 mM) |
| CC(C)C[C@@H](NC(=O)[C@@H](C)NC(=O)[C@@H](CCC(=O)O)NC(=O)[C@@H](Cc1ccc(O)cc1)NC(=O)[C@@H](CCC(=O)O)NC(=O)[C@@H](CO)NC(=O)[C@H](NC(=O)[C@H](N)Cc1ccc(-c2ccccc2)cc1)[C@H](C)O)C(=O)NCC(=O)N[C@@H](CCCCN)C(=O)N[C@@H](CCCCN)C(=O)O [Peptide 213.30, (bip)tseyealGKK] (H-[dBip][dT][dS][dE][dY][dE][dA][dL]GKK-OH; N-terminus and C-terminus assumed) | 16 mg/mL (≈ 11.9 mM) |

system: rat model of ischemic nephropathy; assay: Rat model of ischemic nephropathy (bilateral renal artery occlusion): GFR, urine flow, renal plasma flow, BUN/creatinine, histology; assay type: in vivo, Sprague-Dawley rats; conditions: 213.29 1 mg/kg iv bolus; fenoldopam 0.6 μg/kg iv bolus then 0.6 μg/kg/h
Protocol: Bilateral clamping of the renal arteries for 30-60 minutes results in the […] of the kidneys and associated sequelae such as a dramatic decrease in glomerular filtration rate, urine output and tubular cell death. This model reproduces some important consequences of oligouric renal failure in humans. The efficacy of various 213.15 derivatives in reversing the renal damage was measured.
Sprague-Dawley rats (250-300 g) were anesthetized and the jugular vein was canulated for infusion with the peptide or with saline. In addition, the carotid artery was canulated to measure the arterial blood pressure with a pressure transducer (Gould) and to collect blood samples. The urinary bladder was canulated to collect urine. After catheterization, an infusion (1.6 ml/hr) of a mixture of [^3H] inulin (8 μCi/hr), [^14C] aminohippuric acid (0.8 μCi/hr) and anesthetics (ketamine and xylazine; 9:1 w:w; 0.095 ml/ml) was started. The animals were allowed to stabilize for a further 40 minutes. Two urine samples were collected over 10 minute periods, (from 40 to 50 minutes, and from 50 to 60 minutes) to assess the stability of the basal GFR. Blood samples were collected at 45 and 55 minutes respectively. The left and right renal arteries were then clamped for a period of 60 minutes to induce an acute renal ischemia. After the ischemic period, the animals were treated with peptides, 213.19-213.30, (1 mg/kg iv bolus) or with saline via the jugular vein. Blood and urine samples were then collected every 20 minutes for an additional period of 2 hours. Glomerular filtration rates (GFR) and urine flow rates, (measured by the [^3H] inulin method) as well as renal plasma flow (measured by the [^14C] aminohippuric acid method), were determined at different times and averaged for a 60 minute (20-80 minutes following the drug administration) period.
The efficacy of fenoldopam and 213.29, in improving kidney function in the rat model of ischemic nephropathy (described in Example 2) was compared. […]

| Structure (SMILES) | renal perfusion and GFR | urine output |
| --- | --- | --- |
| Oc1ccc(C2CNCCc3c2cc(O)c(O)c3Cl)cc1 (centres unmarked) [fenoldopam, Fenoldopam] | only 213.29 was able to improve renal perfusion and GFR significantly | increased urine output to a similar extent |

same assay, conditions: after 72 hours; 213.29 1 mg/kg iv bolus; fenoldopam 0.6 μg/kg bolus then 0.6 μg/kg/h

| Structure (SMILES) | blood urea nitrogen (BUN) and serum creatinine levels |
| --- | --- |
| Oc1ccc(C2CNCCc3c2cc(O)c(O)c3Cl)cc1 (centres unmarked) [fenoldopam, Fenoldopam] | equally efficacious in reducing BUN and creatinine levels |
